In ChEMBL document CHEMBL1201862, “PubChem BioAssay data set” (2004):
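Five compound concentrations were applied to cells in 96-well plates for 48 hours; endpoints were derived by simple linear interpolation of the resulting dose-response curve. GI50: concentration for 50% inhibition of growth.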 Activity calls are given as the source filed them. Cut-off read from the data, not from the text of the source: active = GI50 up to about 1.1 µM and inactive = higher.

Tests used:
Experiment in all cases: DTP human tumour cell line panel, 48 h
[1] = system: SK-MEL-28
[2] = system: SW-620
[3] = system: M14
[4] = system: HCT-116
[5] = system: SNB-75
[6] = system: SK-MEL-5
[7] = system: K562
[8] = system: MOLT-4
[9] = system: KM12
[10] = system: PC-3
[11] = system: SN12C
[12] = system: UACC-62
[13] = system: NCI-H23
[14] = system: NCI-H226
[15] = system: A498
[16] = system: CAKI-1
[17] = system: 786-0
[18] = system: SF-295
[19] = system: OVCAR-8
[20] = system: OVCAR-3

For `c1ccc2[nH]c3nc4ccccc4c-3cc2c1`, the GI50 [1] was 1.31 µM (inactive), the GI50 [2] was 0.156 µM (active) and the GI50 [3] was 0.536 µM (active). The GI50 [4] was < 0.0311 µM (active), the GI50 [5] was 2.1 µM (inactive) and the GI50 [6] was 0.698 µM (active). For the same compound, the GI50 [7] was 0.189 µM (active), the GI50 [8] was 0.0942 µM (active) and the GI50 [9] was 0.348 µM (active). For the same compound, the GI50 [10] was 0.232 µM (active), the GI50 [11] was 0.63 µM (active) and the GI50 [12] was 0.632 µM (active). For the same compound, the GI50 [13] was 0.615 µM (active), the GI50 [14] was 1.02 µM (active) and the GI50 [15] was 3.33 µM (inactive). For the same compound, the GI50 [16] was 0.524 µM (active), the GI50 [17] was 0.0199 µM (active) and the GI50 [18] was 0.5 µM (active). For the same compound, the GI50 [19] was 0.363 µM (active).
`Oc1nc2c(c(-c3ccccc3Cl)n1)COC/C2=C\c1ccccc1Cl` was tested, and the GI50 [1] was > 100 µM (inactive), the GI50 [2] was > 100 µM (inactive) and the GI50 [3] was > 100 µM (inactive). The GI50 [4] was > 100 µM (inactive), the GI50 [5] was 38.9 µM (inactive) and the GI50 [6] was > 100 µM (inactive). The GI50 [8] was 55.5 µM (inactive), the GI50 [9] was > 100 µM (inactive) and the GI50 [10] was > 100 µM (inactive). The GI50 [11] was > 100 µM (inactive), the GI50 [12] was > 100 µM (inactive) and the GI50 [13] was > 100 µM (inactive). For the same compound, the GI50 [14] was > 100 µM (inactive), the GI50 [15] was > 100 µM (inactive) and the GI50 [16] was > 100 µM (inactive). For the same compound, the GI50 [17] was > 100 µM (inactive), the GI50 [18] was 94.8 µM (inactive) and the GI50 [20] was > 100 µM (inactive). The GI50 [19] was > 100 µM (inactive).
In the case of `COc1ccccc1N/C(SCc1ccccc1)=C(/C(Cl)=C(Cl)Cl)[N+](=O)[O-]`, the GI50 [1] is reported as 15.1 µM (inactive), the GI50 [2] is reported as 17.8 µM (inactive) and the GI50 [3] is reported as 27 µM (inactive). The GI50 [4] was 31.3 µM (inactive), the GI50 [5] was 31.8 µM (inactive) and the GI50 [7] was 19.8 µM (inactive). For the same compound, the GI50 [8] was 28.2 µM (inactive), the GI50 [9] was 34 µM (inactive) and the GI50 [10] was 31.8 µM (inactive). For the same compound, the GI50 [11] was 20.3 µM (inactive), the GI50 [12] was 48 µM (inactive) and the GI50 [13] was 16.1 µM (inactive). For the same compound, the GI50 [14] was 35.5 µM (inactive), the GI50 [15] was 82.8 µM (inactive) and the GI50 [16] was 28.8 µM (inactive). For the same compound, the GI50 [17] was 30.5 µM (inactive), the GI50 [18] was 25.7 µM (inactive) and the GI50 [20] was 18.7 µM (inactive). The GI50 [19] was 14.4 µM (inactive).
For `COC(=O)[C@H]1[C@H](OC(=O)[C@@H](OC)c2ccccc2)ON2CC[C@@H](OC(=O)c3ccccc3)[C@H]12`, the GI50 [1] was > 100 µM (inactive), the GI50 [3] was > 100 µM (inactive) and the GI50 [4] was > 100 µM (inactive). For the same compound, the GI50 [5] was 29 µM (inactive), the GI50 [6] was > 100 µM (inactive) and the GI50 [7] was > 100 µM (inactive). The GI50 [8] was > 100 µM (inactive), the GI50 [9] was > 100 µM (inactive) and the GI50 [10] was > 100 µM (inactive). For the same compound, the GI50 [11] was 78 µM (inactive), the GI50 [12] was 10.7 µM (inactive) and the GI50 [13] was > 100 µM (inactive). The GI50 [14] was > 100 µM (inactive), the GI50 [15] was 9.38 µM (inactive) and the GI50 [16] was 45.2 µM (inactive). For the same compound, the GI50 [17] was 43 µM (inactive), the GI50 [18] was 39.4 µM (inactive) and the GI50 [19] was 61.4 µM (inactive).
In the case of `CCCCCCCCCCCCCCCCNc1nc(=O)n(C2CC(O)C(CO)O2)cc1F` (configuration not stated), the GI50 [1] is reported as 12.7 µM (inactive), the GI50 [2] is reported as 13 µM (inactive) and the GI50 [3] is reported as 8.57 µM (inactive). For the same compound, the GI50 [4] was 8.26 µM (inactive), the GI50 [5] was 5.06 µM (inactive) and the GI50 [6] was 11.6 µM (inactive). The GI50 [8] was 4.72 µM (inactive), the GI50 [9] was 13.8 µM (inactive) and the GI50 [10] was 3.93 µM (inactive). The GI50 [11] was 12.5 µM (inactive), the GI50 [12] was 10.7 µM (inactive) and the GI50 [13] was 4.85 µM (inactive). The GI50 [14] was 1.28 µM (inactive), the GI50 [15] was > 10 µM (inactive) and the GI50 [16] was 2.1 µM (inactive). For the same compound, the GI50 [17] was 2.88 µM (inactive), the GI50 [18] was 16.5 µM (inactive) and the GI50 [20] was 13.9 µM (inactive). The GI50 [19] was 1.82 µM (inactive).
In the case of `C=CCC1CC(n2cc(C)c(=O)[nH]c2=O)OC1CO[Si](C)(C)C(C)(C)C` (configuration not stated), the GI50 [1] is reported as 16.3 µM (inactive), the GI50 [2] is reported as 16.1 µM (inactive) and the GI50 [3] is reported as 18.6 µM (inactive). For the same compound, the GI50 [4] was 11.7 µM (inactive), the GI50 [5] was 11.8 µM (inactive) and the GI50 [6] was 15.4 µM (inactive). The GI50 [7] was 0.163 µM (active), the GI50 [9] was 12 µM (inactive) and the GI50 [10] was 11.4 µM (inactive). The GI50 [11] was 15 µM (inactive), the GI50 [12] was 17.2 µM (inactive) and the GI50 [13] was 12.5 µM (inactive). For the same compound, the GI50 [14] was 13.2 µM (inactive), the GI50 [15] was 19.1 µM (inactive) and the GI50 [16] was 13.7 µM (inactive). The GI50 [17] was 15.2 µM (inactive), the GI50 [18] was 17.6 µM (inactive) and the GI50 [20] was 15.9 µM (inactive). For the same compound, the GI50 [19] was 15.1 µM (inactive).
`CCOC(=O)c1cc2c(OC(C)=O)ccc(OC(C)=O)c2s1` was tested, and the GI50 [1] was 2.15 µM (inactive), the GI50 [2] was 2.1 µM (inactive) and the GI50 [3] was 1.77 µM (inactive). The GI50 [4] was 2.81 µM (inactive), the GI50 [5] was 2.07 µM (inactive) and the GI50 [6] was 2.29 µM (inactive). The GI50 [8] was 2.58 µM (inactive), the GI50 [9] was 4.52 µM (inactive) and the GI50 [10] was 1.96 µM (inactive). The GI50 [11] was 2.25 µM (inactive), the GI50 [12] was 1.82 µM (inactive) and the GI50 [13] was 1.99 µM (inactive). The GI50 [14] was 12.9 µM (inactive), the GI50 [15] was 5.28 µM (inactive) and the GI50 [16] was 4.35 µM (inactive). For the same compound, the GI50 [17] was 2.49 µM (inactive), the GI50 [18] was 6.9 µM (inactive) and the GI50 [20] was 1.61 µM (inactive). For the same compound, the GI50 [19] was 1.66 µM (inactive).
